Data reported in PubChem BioAssay AID1963860 (Molecular Pharmacology Branch, DTP, NCI, 2024).

System: CN0375-F725-PDC KRAS spheroid viability
Test: Anticancer human tumor CN0375-F725-PDC patient-derived colon carcinoma cell line growth inhibition [KRAS2]
Details: spheroids with HUVEC and MSC; for IC50: curve of first compound; for viability, T/C: stronger effect = lower value
Method in brief: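 KRAS-mutant tumor cells were grown as spheroids with HUVEC endothelial cells and human MSCs as stroma. Targeted agents were tested alone and with KRAS pathway inhibitors. Doses started at or near clinical Cmax, or 10 microM, descending half-log.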

[1] = second compound 0.1 µM, first compound 0.0316 µM
[2] = second compound 0.1 µM, first compound 0.1 µM
[3] = second compound 0.316 µM, first compound 0.0316 µM
[4] = second compound 0.316 µM, first compound 0.1 µM
[5] = second compound 1 µM, first compound 0.0316 µM
[6] = second compound 1 µM, first compound 0.1 µM
[7] = second compound 3.16 µM, first compound 0.0316 µM
[8] = second compound 3.16 µM, first compound 0.1 µM
[9] = second compound 10 µM, first compound 0.0316 µM
[10] = second compound 10 µM, first compound 0.1 µM
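Also: spheroids exposed to agents for 7 days.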

**Q.** How did the IC50 (second compound 0.1 µM) turn out when `CC(C)n1nc(-c2ccc3oc(N)nc3c2)c2c(N)ncnc21` + COc1cc2nc(C)nc(NC(C)c3cc(N)cc(C(F)(F)F)c3)c2cc1OC1CCOC1 was run?
**A.** 59.1 nM

**Q.** And the IC50 (second compound 0.316 µM)?
**A.** 49 nM

**Q.** And the IC50 (second compound 1 µM)?
**A.** 36.5 nM

**Q.** And the IC50 (second compound 3.16 µM)?
**A.** 25.9 nM

**Q.** What about the IC50 (second compound 10 µM) of the same compound?
**A.** < 0.316 nM

**Q.** And the viability, T/C (second compound 0.1 µM, first compound 0.000316 µM)?
**A.** 101%

**Q.** What about the viability, T/C (second compound 0.1 µM, first compound 0.001 µM) of the same compound?
**A.** 93.6%

**Q.** What about the viability, T/C (second compound 0.1 µM, first compound 0.00316 µM) of the same compound?
**A.** 78%

**Q.** What about the viability, T/C (second compound 0.1 µM, first compound 0.01 µM) of the same compound?
**A.** 70.4%

**Q.** And the viability, T/C [1]?
**A.** 54.5%

**Q.** What about the viability, T/C [2] of the same compound?
**A.** 45.5%

**Q.** And the viability, T/C (second compound 0.316 µM, first compound 0.000316 µM)?
**A.** 95.1%

**Q.** And the viability, T/C (second compound 0.316 µM, first compound 0.001 µM)?
**A.** 89.7%

**Q.** What about the viability, T/C (second compound 0.316 µM, first compound 0.00316 µM) of the same compound?
**A.** 77.6%

**Q.** And the viability, T/C (second compound 0.316 µM, first compound 0.01 µM)?
**A.** 66%

**Q.** What about the viability, T/C [3] of the same compound?
**A.** 54.2%

**Q.** What about the viability, T/C [4] of the same compound?
**A.** 43.7%

**Q.** What about the viability, T/C (second compound 1 µM, first compound 0.000316 µM) of the same compound?
**A.** 90.5%

**Q.** What about the viability, T/C (second compound 1 µM, first compound 0.001 µM) of the same compound?
**A.** 88.6%

**Q.** And the viability, T/C (second compound 1 µM, first compound 0.00316 µM)?
**A.** 76%

**Q.** What about the viability, T/C (second compound 1 µM, first compound 0.01 µM) of the same compound?
**A.** 66.4%

**Q.** What about the viability, T/C [5] of the same compound?
**A.** 50.2%

**Q.** What about the viability, T/C [6] of the same compound?
**A.** 42.1%

**Q.** What about the viability, T/C (second compound 3.16 µM, first compound 0.000316 µM) of the same compound?
**A.** 85.2%

**Q.** What about the viability, T/C (second compound 3.16 µM, first compound 0.001 µM) of the same compound?
**A.** 80.8%

**Q.** What about the viability, T/C (second compound 3.16 µM, first compound 0.00316 µM) of the same compound?
**A.** 72.9%

**Q.** And the viability, T/C (second compound 3.16 µM, first compound 0.01 µM)?
**A.** 59%

**Q.** What about the viability, T/C [7] of the same compound?
**A.** 48.5%

**Q.** What about the viability, T/C [8] of the same compound?
**A.** 40.8%

**Q.** What about the viability, T/C (second compound 10 µM, first compound 0.000316 µM) of the same compound?
**A.** 13.7%

**Q.** What about the viability, T/C (second compound 10 µM, first compound 0.001 µM) of the same compound?
**A.** 14.8%

**Q.** What about the viability, T/C (second compound 10 µM, first compound 0.00316 µM) of the same compound?
**A.** 25.4%

**Q.** And the viability, T/C (second compound 10 µM, first compound 0.01 µM)?
**A.** 22%

**Q.** And the viability, T/C [9]?
**A.** 18.1%

**Q.** What about the viability, T/C [10] of the same compound?
**A.** 13.7%

**Q.** For `CC1(C)CCC(CN2CCN(c3ccc(C(=O)NS(=O)(=O)c4ccc(NCC5CCOCC5)c([N+](=O)[O-])c4)c(Oc4cnc5[nH]ccc5c4)c3)CC2)=C(c2ccc(Cl)cc2)C1` + COc1cc2nc(C)nc(NC(C)c3cc(N)cc(C(F)(F)F)c3)c2cc1OC1CCOC1, which IC50 (second compound 0.1 µM) is on record?
**A.** 6370 nM

**Q.** And the IC50 (second compound 0.316 µM)?
**A.** 5610 nM

**Q.** What about the IC50 (second compound 1 µM) of the same compound?
**A.** 2800 nM

**Q.** What about the IC50 (second compound 3.16 µM) of the same compound?
**A.** 2080 nM

**Q.** What about the IC50 (second compound 10 µM) of the same compound?
**A.** < 31.6 nM

**Q.** And the viability, T/C [1]?
**A.** 99.9%

**Q.** And the viability, T/C [2]?
**A.** 100%

**Q.** And the viability, T/C (second compound 0.1 µM, first compound 0.316 µM)?
**A.** 92.4%

**Q.** What about the viability, T/C (second compound 0.1 µM, first compound 1 µM) of the same compound?
**A.** 97.4%

**Q.** What about the viability, T/C (second compound 0.1 µM, first compound 3.16 µM) of the same compound?
**A.** 66.2%

**Q.** What about the viability, T/C (second compound 0.1 µM, first compound 10 µM) of the same compound?
**A.** 39.6%

**Q.** And the viability, T/C [3]?
**A.** 93.7%

**Q.** And the viability, T/C [4]?
**A.** 100%

**Q.** And the viability, T/C (second compound 0.316 µM, first compound 0.316 µM)?
**A.** 94.3%

**Q.** And the viability, T/C (second compound 0.316 µM, first compound 1 µM)?
**A.** 93.7%

**Q.** And the viability, T/C (second compound 0.316 µM, first compound 3.16 µM)?
**A.** 59.4%

**Q.** And the viability, T/C (second compound 0.316 µM, first compound 10 µM)?
**A.** 40.6%

**Q.** And the viability, T/C [5]?
**A.** 93.1%

**Q.** And the viability, T/C [6]?
**A.** 88%

**Q.** What about the viability, T/C (second compound 1 µM, first compound 0.316 µM) of the same compound?
**A.** 94.6%

**Q.** What about the viability, T/C (second compound 1 µM, first compound 1 µM) of the same compound?
**A.** 87.5%

**Q.** And the viability, T/C (second compound 1 µM, first compound 3.16 µM)?
**A.** 45.6%

**Q.** What about the viability, T/C (second compound 1 µM, first compound 10 µM) of the same compound?
**A.** 27.2%

**Q.** And the viability, T/C [7]?
**A.** 81.4%

**Q.** What about the viability, T/C [8] of the same compound?
**A.** 85.4%

**Q.** What about the viability, T/C (second compound 3.16 µM, first compound 0.316 µM) of the same compound?
**A.** 91.8%

**Q.** And the viability, T/C (second compound 3.16 µM, first compound 1 µM)?
**A.** 74.6%

**Q.** And the viability, T/C (second compound 3.16 µM, first compound 3.16 µM)?
**A.** 36%

**Q.** What about the viability, T/C (second compound 3.16 µM, first compound 10 µM) of the same compound?
**A.** 28.6%

**Q.** What about the viability, T/C [9] of the same compound?
**A.** 11.2%

**Q.** And the viability, T/C [10]?
**A.** 14.5%

**Q.** What about the viability, T/C (second compound 10 µM, first compound 0.316 µM) of the same compound?
**A.** 19%

**Q.** And the viability, T/C (second compound 10 µM, first compound 1 µM)?
**A.** 26.2%

**Q.** And the viability, T/C (second compound 10 µM, first compound 3.16 µM)?
**A.** 27.2%

**Q.** What about the viability, T/C (second compound 10 µM, first compound 10 µM) of the same compound?
**A.** 18.3%
